Assay results published in the supplement of paper PMC10307832.

Tests used:
Assay in all cases: relative viability (nuclei count vs DMSO), 5 days (fraction); higher = more cells survive
Adavosertib + Foretinib = compound: C=CCn1c(=O)c2cnc(Nc3ccc(N4CCN(C)CC4)cc3)nc2n1-c1cccc(C(C)(C)O)n1 [Adavosertib] + COc1cc2c(Oc3ccc(NC(=O)C4(C(=O)Nc5ccc(F)cc5)CC4)cc3F)ccnc2cc1OCCCN1CCOCC1 [Foretinib] (partner 0.25 µM)
In short: (§1)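 After 5 days of treatment, lung cancer cells in 1536-well plates were fixed and stained in a single step (final 0.05% Triton X-100, 1% formaldehyde, 1 ug/ml Hoechst) and their nuclei counted on 4× images. Treatment had been applied by pin tool the day after seeding as one drug alone or as a fixed anchor-drug dose with five library-drug doses (not always all listed) in √10 steps. Relative viability is the nuclei count of treated wells divided by that of vehicle wells, and values are medians of duplicate plates.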

Adavosertib + Vorinostat = compound: C=CCn1c(=O)c2cnc(Nc3ccc(N4CCN(C)CC4)cc3)nc2n1-c1cccc(C(C)(C)O)n1 [Adavosertib] + O=C(CCCCCCC(=O)Nc1ccccc1)NO [Vorinostat] (partner 1 µM)
In short: as §1

Nelarabine + Trametinib = compound: COc1nc(N)nc2c1ncn2[C@@H]1O[C@H](CO)[C@@H](O)[C@@H]1O [Nelarabine] + CC(=O)Nc1cccc(-n2c(=O)n(C3CC3)c(=O)c3c(Nc4ccc(I)cc4F)n(C)c(=O)c(C)c32)c1 [Trametinib] (partner 0.02 µM)
In short: as §1

Nelarabine + Navitoclax = compound: COc1nc(N)nc2c1ncn2[C@@H]1O[C@H](CO)[C@@H](O)[C@@H]1O [Nelarabine] + CC1(C)CCC(c2ccc(Cl)cc2)=C(CN2CCN(c3ccc(C(=O)NS(=O)(=O)c4ccc(N[C@H](CCN5CCOCC5)CSc5ccccc5)c(S(=O)(=O)C(F)(F)F)c4)cc3)CC2)C1 [Navitoclax] (partner 0.5 µM)
In short: as §1

Cell Line	relative viability (Adavosertib + Foretinib; first compound 0.01 µM)	relative viability (Adavosertib + Foretinib; first compound 0.03162 µM)	relative viability (Adavosertib + Foretinib; first compound 0.1 µM)	relative viability (Adavosertib + Foretinib; first compound 0.3162 µM)	relative viability (Adavosertib + Vorinostat; first compound 0.01 µM)	relative viability (Adavosertib + Vorinostat; first compound 0.03162 µM)	relative viability (Adavosertib + Vorinostat; first compound 0.1 µM)	relative viability (Adavosertib + Vorinostat; first compound 0.3162 µM)	relative viability (Nelarabine + Trametinib; first compound 0.01 µM)	relative viability (Nelarabine + Trametinib; first compound 0.03162 µM)	relative viability (Nelarabine + Trametinib; first compound 0.1 µM)	relative viability (Nelarabine + Trametinib; first compound 0.3162 µM)	relative viability (Nelarabine + Trametinib; first compound 1 µM)	relative viability (Nelarabine + Navitoclax; first compound 0.01 µM)	relative viability (Nelarabine + Navitoclax; first compound 0.03162 µM)	relative viability (Nelarabine + Navitoclax; first compound 0.1 µM)	relative viability (Nelarabine + Navitoclax; first compound 0.3162 µM)	relative viability (Nelarabine + Navitoclax; first compound 1 µM)
HCC-366	0.96	0.935	0.924	1.04	0.353	0.411	0.319	0.219	0.503	0.37	0.279	0.466	0.327	1.55	1.03	1.22	1.2	1
RERF-LC-KJ	0.857	0.844	0.882	0.954	0.65	0.708	0.629	0.654	1.03	1	0.934	0.986	0.862	0.859	1.12	0.901	1.08	0.783
EKVX	0.743	1.15	0.755	0.748	0.843	0.718	0.697	0.682	0.402	0.306	0.587	0.282	0.472	1.14	0.897	0.856	1.08	0.982
NCI-H1395	0.922	0.932	0.989	0.83	0.595	0.759	0.619	0.504	1.12	1.1	0.946	1.05	1.12	1.18	1.16	1.28	1.19	1.17
LOU-NH91	0.875	0.945	0.943	0.88	0.882	0.99	0.908	0.896	0.856	0.731	0.769	0.804	0.794	0.786	0.588	0.616	0.632	0.69
NCI-H647	1.15	1.33	1.04	1.12	0.632	0.538	0.643	0.212	0.584	0.423	0.537	0.548	0.502	1.6	1.01	1.13	1.43	1.07
NCI-H3122	0.982	0.931	0.956	0.996	0.991	0.942	0.857	0.992	0.307	0.163	–	0.23	0.237	1.04	0.668	–	1.04	1.05
H3255	0.892	0.851	0.921	1.04	0.763	0.908	0.828	1	0.713	0.706	0.619	0.651	0.806	0.59	0.486	0.625	0.6	0.622
SW 1573	0.953	0.914	1.13	1.2	0.807	0.687	0.904	0.758	0.667	0.599	0.566	0.631	0.512	1.14	1.26	1.02	0.98	1.03
HCC-15	1.04	0.936	1.2	1.25	0.908	0.823	0.86	0.829	0.431	0.427	0.307	0.42	0.386	0.794	0.633	0.686	0.724	0.705
PC-3 [JPC-3]	0.957	1.04	1.04	1.04	–	0.756	0.621	0.753	0.753	0.808	0.683	0.672	0.775	1.04	0.732	0.748	0.913	0.926
NCI-H1915	1.14	1.03	1.2	1.14	0.552	0.521	0.53	0.373	0.328	0.318	0.284	0.299	0.305	0.799	0.687	0.767	0.805	0.796
ChaGo-K-1	0.856	0.951	0.941	1.02	0.747	0.74	0.779	0.741	1	0.748	0.935	0.845	0.899	1.03	1.02	1.48	0.936	1.07
PC-14	0.934	0.957	0.933	0.636	0.841	0.85	0.638	0.183	0.894	0.87	0.766	0.844	0.774	1.09	1.11	1.05	1.05	1.03
LK-2	1.16	1.21	1.64	1.14	0.265	0.362	0.351	0.306	0.903	0.474	0.795	0.956	0.86	0.975	–	1.09	0.935	0.729
COR-L 105	0.781	0.872	1.24	0.925	0.892	0.848	0.898	0.677	0.351	0.398	0.448	0.383	0.482	0.936	0.956	0.733	0.819	0.795
UMC-11	0.981	1.06	1.06	1.08	0.438	0.405	0.346	0.308	0.855	0.659	0.755	0.767	0.843	0.291	0.277	0.307	0.306	0.313
NCI-H1975	0.967	0.962	0.878	0.778	0.973	0.676	0.676	0.571	0.355	0.35	0.36	0.396	0.381	1.27	0.948	1.26	1.39	1.14

Cell Line	relative viability (Adavosertib + Foretinib; first compound 0.01 µM)	relative viability (Adavosertib + Foretinib; first compound 0.03162 µM)	relative viability (Adavosertib + Foretinib; first compound 0.1 µM)	relative viability (Adavosertib + Foretinib; first compound 0.3162 µM)	relative viability (Adavosertib + Vorinostat; first compound 0.01 µM)	relative viability (Adavosertib + Vorinostat; first compound 0.03162 µM)	relative viability (Adavosertib + Vorinostat; first compound 0.1 µM)	relative viability (Adavosertib + Vorinostat; first compound 0.3162 µM)	relative viability (Nelarabine + Trametinib; first compound 0.01 µM)	relative viability (Nelarabine + Trametinib; first compound 0.03162 µM)	relative viability (Nelarabine + Trametinib; first compound 0.1 µM)	relative viability (Nelarabine + Trametinib; first compound 0.3162 µM)	relative viability (Nelarabine + Trametinib; first compound 1 µM)	relative viability (Nelarabine + Navitoclax; first compound 0.01 µM)	relative viability (Nelarabine + Navitoclax; first compound 0.03162 µM)	relative viability (Nelarabine + Navitoclax; first compound 0.1 µM)	relative viability (Nelarabine + Navitoclax; first compound 0.3162 µM)	relative viability (Nelarabine + Navitoclax; first compound 1 µM)
LXF-289	1.01	0.973	0.973	1.03	0.795	0.791	0.768	0.735	0.714	0.74	0.673	0.667	0.73	1.12	0.882	0.98	1	0.908
NCI-H1993	0.795	0.863	0.83	0.838	0.725	0.791	0.84	1.05	0.531	0.48	0.479	0.487	0.588	1.14	0.783	0.982	1.02	0.956
NCI-H23	1.04	0.891	0.75	0.261	0.627	0.469	0.401	0.185	0.403	0.404	0.343	0.378	0.409	0.804	0.821	0.783	0.854	0.763
NCI-H1650	1.12	1.15	1.31	0.797	0.63	0.731	0.485	0.389	0.513	0.694	0.462	0.818	0.562	1.32	1.36	1.28	1.36	1.23
NCI-H2023	0.85	0.933	0.916	0.568	0.671	0.494	0.348	0.16	0.721	0.61	0.46	0.632	0.505	1.26	1.17	1.03	1.07	1.01
COR-L23	1.02	0.997	1.08	0.644	0.486	0.406	0.386	0.166	0.779	0.558	0.516	0.612	0.777	1.4	1.14	1.09	1.04	0.977
LCLC-97TM1	0.847	0.906	0.994	0.881	0.809	0.71	0.77	0.573	–	–	0.189	0.203	0.224	0.428	0.202	0.458	0.478	0.351
NCI-H441	1.04	0.964	1.09	0.916	0.848	0.829	0.881	0.72	0.432	0.482	0.469	0.446	0.466	1.13	0.707	0.912	0.5	0.49
NCI-H1734	0.954	0.831	0.82	0.759	0.923	0.865	0.622	0.33	0.829	0.615	0.666	0.666	0.627	1.06	0.787	0.962	0.869	0.833
NCI-H1437	1.2	1.35	1.27	1.25	0.985	0.784	0.936	0.816	0.637	0.582	0.484	0.64	0.581	1.38	1.16	1.09	1.05	1.03
NCI-H727	0.689	1.07	0.917	0.831	0.934	1.13	1.13	1.15	0.377	0.43	0.358	0.35	0.321	0.496	0.384	0.376	0.424	0.377
NCI-H1651	0.729	0.95	0.812	0.723	0.524	0.626	0.567	0.538	0.948	0.909	0.842	0.827	0.821	1.48	1.1	1.1	1.04	1.08
NCI-H838	1.06	1.06	1.04	1.19	0.706	0.694	0.701	0.67	0.572	0.586	0.473	0.621	0.575	1.48	1.13	1.22	1.26	1.25
NCI-H460	1.05	0.933	1.1	0.994	0.712	0.702	0.906	0.355	0.124	0.213	0.0809	0.259	0.164	–	1.68	1.42	1.37	1.17
HCC-78	0.54	0.628	0.587	0.628	0.492	0.437	0.473	0.42	1.19	0.74	–	0.853	0.96	0.96	0.925	–	0.955	0.901
SK-LU-1	0.773	0.831	0.563	0.311	0.734	0.831	0.666	0.453	0.523	0.42	0.421	0.558	0.514	0.773	0.485	0.84	0.79	0.79
NCI-H2170	1.02	0.603	0.923	1.07	0.866	0.818	0.788	0.676	1.26	0.804	0.997	0.944	0.911	0.564	0.627	0.65	0.678	0.552
